Consider one compound from patent publication US20200002382A1, “Method for manufacturing oxytocin by liquid-phase polypeptide synthesis” (LANZHOU KAIBO PHARMACEUTICAL CO., LTD., priority 2017, published 2020).

Where two headings read alike, the source gives them in different places.

Experiment [1] can be described thus: Biological value of the pure oxytocin product by the content determination method of the European Pharmacopoeia. As to conditions: pure oxytocin from the liquid-phase synthesis; European Pharmacopoeia (version 8.0) content determination method, European Pharmacopoeia standards as standard materials; water and acetic acid removed. The source says: In order to solve the problems existing in the present oxytocin synthesis technology, the invention provides a liquid-phase synthesis technique of oxytocin characterized by high productivity, low cost, safe environment, mild reaction conditions, high level of purity and biological value and great possibility for industrial production. The pure product of oxytocin provided by the invention has a content of 98.1% and a biological value of 588 IU/mg measured by the content determination method according to the European Pharmacopoeia (version 8.0).
Liquid contained oxytocin with purity above 99% is collected, concentrated at 25° C., desalted by PS polymer, concentrated, and freeze-dried to obtain the pure product of oxytocin (the HPLC image is shown in the attached drawings). The pure product of oxytocin provided by the invention has a content of 98.1% and a biological value of 588 IU/mg measured by the content determination method according to the European Pharmacopoeia, with the European Pharmacopoeia standards used as the standard materials. […]

For experiment [2] the following is noted: Photaki synthesis: 1,2-diiodoethane disulfide formation, HBr/AcOH deprotection, purified product; cited from earlier work.

With `CC[C@H](C)[C@@H]1NC(=O)[C@H](Cc2ccc(O)cc2)NC(=O)[C@@H](N)CSSC[C@@H](C(=O)N2CCC[C@H]2C(=O)N[C@@H](CC(C)C)C(=O)NCC(N)=O)NC(=O)[C@H](CC(N)=O)NC(=O)[C@H](CCC(N)=O)NC1=O` [oxytocin, Oxytocin], the biological value in experiment [1] is listed as 588 IU/mg; in experiment [2] it was 380 IU/mg.
